Reference: patent US9556229B2, “Modification of peptides using a bis(thioether)arylbridge approach” (priority 2012, dated 2017)
Starred links: 1 amine or outer side, 2 acyl side, 3 side chain; linkers in the order of their positions; H or OH if unused. Positions of bridges follow the written chain, without caps; N, C: chain ends. Non-standard residues stand in square brackets, D forms with d. Residues, ends and D or L forms follow the SMILES beside them. ξ: configuration not given here. *: point of attachment. X2 = Cc1cn([C@H]2C[C@H](n3cc(CCCC(=O)*)nn3)[C@@H](CO)O2)c(=O)[nH]c1=O; Phe(F5) = N[C@@H](Cc1c(F)c(F)c(F)c(F)c1F)C(=O)O; Chlorambucil = O=C(CCCc1ccc(N(CCCl)CCCl)cc1)*; X1 = O=C(Cc1ccc(CSCCCCN[*:1])cc1)[*:2]; 1Nal = N[C@@H](Cc1cccc2ccccc12)C(=O)O; mXylylene = c1cc(C[*:1])cc(C[*:2])c1; oXylylene = c1ccc(C[*:2])c(C[*:1])c1; Cha = N[C@@H](CC1CCCCC1)C(=O)O; Nicotinoyl = O=C(c1cccnc1)*; ξDisc = O=C(O)C1NCc2ccccc21; N(CH2CH2)2NH = C1CN(*)CCN1; β3hP = O=C(O)C[C@@H]1CCCN1; Inp = O=C(O)C1CCNCC1; Ahx = NCCCCCC(=O)O

System: HCT116/SCID
Assay: Mouse subcutaneous engraftment model (HCT116/SCID)
Format: in vivo
Details: not given
Description: Based on analysis of p53/MDM2 and PMI-N8A/MDM2 crystal structures we placed various combinations of (L)- and (D)Cys residues in specific positions of PMI sequence considering the importance of particular amino acids for peptide bioactivity (see, e.g., Tables 1 and 2. Particular combinations were in turn tAB-ed using selected bis-halogeno-aryl compounds (see, e.g., FIG. 1) that fit into spatial arrangements/dimensions available, based on computer aided molecular modeling. Since ^DPMI-a presumably lack cell permeating properties, in addition we engineered several analogues as a cell permeating compounds containing multiple Arg residues simultaneously employing combination of D- and unusual amino acids to further enhance stability and binding properties of the peptide. Analogues were subsequently tested in vitro using HCT116 colorectal cancer cells and PrestoBlue™ assay (Invitrogen). […] Selected analogues were also tested in vivo using mouse subcutaneous engraftment model (HCT116/SCID).

Compound	tumor growth delay
N=C(N)NCCC[C@@H](N)C(=O)N[C@@H](CCCNC(=N)N)C(=O)N[C@@H](Cc1c(F)c(F)c(F)c(F)c1F)C(=O)N[C@@H](CCCNC(=N)N)C(=O)N[C@@H]1CSCc2ccccc2CSC[C@@H](C(=O)N[C@H](CCCNC(=N)N)C(=O)N[C@@H](CC2CCCCC2)C(=O)N[C@@H](CCCNC(=N)N)C(=O)N2Cc3ccccc3C2C(N)=O)NC(=O)[C@H](Cc2cccc3ccccc23)NC(=O)[C@H](Cc2ccc(O)cc2)NC1=O (stereo partly drawn) [ArB14Co, Arg-Arg-PhF-Arg-Cys-Tyr-Na1-Cys-Arg-Cha-Arg-DISC] (H-[dR]R[Phe(F5)]R[dC]Y[1Nal]C[dR][Cha]R[ξDisc]-NH2; linker 5-8 via oXylylene)	~14.6 days

System: HCT116 colorectal cancer cells
Assay: not given
Details: not given

Compound	EC50
CC(C)C[C@H](NC(=O)[C@@H](C)NC(=O)[C@@H]1CSCc2ccccc2CSC[C@@H](NC(=O)[C@H](C)NC(=O)[C@H](Cc2ccccc2)NC(=O)[C@H](CO)NC(=O)[C@@H](N)[C@@H](C)O)C(=O)N[C@@H](Cc2ccc(O)cc2)C(=O)N[C@@H](Cc2c[nH]c3ccccc23)C(=O)N1)C(=O)N[C@@H](CO)C(=O)N1CCC[C@H]1C(N)=O [ArB14o]	249 µM
CC(C)C[C@H](NC(=O)[C@H]1CSCc2ccc(cc2)CSC[C@@H](NC(=O)[C@H](C)NC(=O)[C@H](Cc2ccccc2)NC(=O)[C@H](CO)NC(=O)[C@@H](N)[C@@H](C)O)C(=O)N[C@@H](Cc2ccc(O)cc2)C(=O)N[C@@H](Cc2c[nH]c3ccccc23)C(=O)NCC(=O)N1)C(=O)N[C@@H](CO)C(=O)N1CCC[C@H]1C(N)=O [ArB15Cp]	> 250 µM
CC(C)C[C@H](NC(=O)[C@H](CCCNC(=N)N)NC(=O)[C@@H]1CSCc2ccccc2CSC[C@H](NC(=O)[C@H](Cc2ccccc2)NC(=O)[C@H](CCCNC(=N)N)NC(=O)c2cccnc2)C(=O)N[C@@H](CCCNC(=N)N)C(=O)N[C@@H](Cc2ccc(O)cc2)C(=O)N[C@@H](Cc2c[nH]c3ccccc23)C(=O)N1)C(=O)N[C@@H](CCCNC(=N)N)C(=O)N1CCC[C@H]1C(N)=O [ArB15FNico] (Nicotinoyl-RFCRYWCRLRP-NH2; linker 3-7 via oXylylene)	189 µM
Cc1cn([C@H]2C[C@H](n3cc(CCCC(=O)N[C@H](CCCNC(=N)N)C(=O)N[C@@H](CCCNC(=N)N)C(=O)N[C@@H](Cc4c(F)c(F)c(F)c(F)c4F)C(=O)N[C@@H](CCCNC(=N)N)C(=O)N[C@@H]4CSCc5ccccc5CSC[C@@H](C(=O)N[C@H](CCCNC(=N)N)C(=O)N[C@@H](CC5CCCCC5)C(=O)N[C@@H](CCCNC(=N)N)C(=O)N5Cc6ccccc6C5C(N)=O)NC(=O)[C@H](Cc5cccc6ccccc56)NC(=O)[C@H](Cc5ccc(O)cc5)NC4=O)nn3)[C@@H](CO)O2)c(=O)[nH]c1=O (stereo partly drawn) [ArB14Co-AZT, AZT-Arg-Arg-PhF-Arg-Cys-Tyr-Na1-Cys-Arg-Cha-Arg-DISC] (X2-[dR]R[Phe(F5)]R[dC]Y[1Nal]C[dR][Cha]R[ξDisc]-NH2; linker 5-8 via oXylylene; N-terminus assumed)	30.2 ± 2.5 µM
CC(C)C[C@H](NC(=O)[C@H](CCCNC(=N)N)NC(=O)[C@H](CS)NC(=O)[C@H](Cc1c[nH]c2ccccc12)NC(=O)[C@H](Cc1ccc(O)cc1)NC(=O)[C@H](CCCNC(=N)N)NC(=O)[C@H](CS)NC(=O)[C@H](Cc1ccccc1)NC(=O)[C@@H](N)CCCNC(=N)N)C(=O)N[C@@H](CCCNC(=N)N)C(=O)N1CCC[C@H]1C(N)=O [ArB15F/Gr] (H-RFCRYWCRLRP-NH2; N-terminus assumed)	> 250 µM
C[C@@H](O)[C@H](N)C(=O)N[C@@H](CO)C(=O)N[C@@H](Cc1ccccc1)C(=O)N[C@@H](CCCNC(=N)N)C(=O)N[C@@H](CCCNC(=N)N)C(=O)N[C@@H](Cc1ccc(O)cc1)C(=O)N[C@H]1CS(=O)(=O)Cc2cccc(c2)CS(=O)(=O)C[C@@H](C(=O)N[C@@H](CO)C(=O)N2CCC[C@H]2C(N)=O)NC(=O)[C@H](CCCNC(=N)N)NC(=O)[C@H](CCCNC(=N)N)NC1=O [ArB14Dmx]	142 µM
CC(C)C[C@H](NC(=O)[C@H](CCCNC(=N)N)NC(=O)[C@@H]1CSCc2cccc(c2)CSC[C@H](NC(=O)[C@H](Cc2ccccc2)NC(=O)[C@@H](N)CCCNC(=N)N)C(=O)N[C@@H](CCCNC(=N)N)C(=O)N[C@@H](Cc2ccc(O)cc2)C(=O)N[C@@H](Cc2c[nH]c3ccccc23)C(=O)N1)C(=O)N[C@@H](CCCNC(=N)N)C(=O)N1CCC[C@H]1C(N)=O [ArB15Gm] (H-RFCRYWCRLRP-NH2; linker 3-7 via mXylylene; N-terminus assumed)	52.2 µM
C[C@@H](O)[C@H](N)C(=O)N[C@@H](CO)C(=O)N[C@@H](Cc1ccccc1)C(=O)N[C@@H](CCCNC(=N)N)C(=O)N[C@@H](CCCNC(=N)N)C(=O)N[C@@H](Cc1ccc(O)cc1)C(=O)N[C@H]1CSCc2cccc(c2)CSC[C@@H](C(=O)N[C@@H](CO)C(=O)N2CCC[C@H]2C(N)=O)NC(=O)[C@H](CCCNC(=N)N)NC(=O)[C@H](CCCNC(=N)N)NC1=O [ArB14Dm]	118 µM
CC(C)C[C@H](NC(=O)[C@H](CCCNC(=N)N)NC(=O)[C@@H]1CSCc2cccc(c2)CSC[C@H](NC(=O)[C@H](Cc2ccccc2)NC(=O)[C@H](CCCNC(=N)N)NC(=O)c2cccnc2)C(=O)N[C@@H](CCCNC(=N)N)C(=O)N[C@@H](Cc2ccc(O)cc2)C(=O)N[C@@H](Cc2c[nH]c3ccccc23)C(=O)N1)C(=O)N[C@@H](CCCNC(=N)N)C(=O)N1CCC[C@H]1C(N)=O [ArB15GNicm] (Nicotinoyl-RFCRYWCRLRP-NH2; linker 3-7 via mXylylene)	126 µM
C[C@H](NC(=O)[C@H](Cc1c(F)c(F)c(F)c(F)c1F)NC(=O)[C@H](CO)NC(=O)[C@@H](N)[C@@H](C)O)C(=O)N[C@@H]1CSCc2ccccc2CSC[C@@H](C(=O)N[C@H](C)C(=O)N[C@@H](CC2CCCCC2)C(=O)N[C@@H](CO)C(=O)N2CCNCC2)NC(=O)[C@H](Cc2cccc3ccccc23)NC(=O)[C@H](Cc2ccc(O)cc2)NC1=O [ArB14Ao, Thr-Ser-PhF-Ala-Cys-Tyr-Na1-Cys-Ala-Cha-Ser-Pipz] (H-TS[Phe(F5)]A[dC]Y[1Nal]C[dA][Cha]S-{N(CH2CH2)2NH}; linker 5-8 via oXylylene; N-terminus assumed)	83.3 µM
C[C@@H]1NC(=O)[C@H](CCCNC(=N)N)NC(=O)C[C@@H]2CCCN2C(=O)Cc2ccc(cc2)CSCCCCNC(=O)C2CCN(CC2)C(=O)[C@@H](CCCCN)NC(=O)[C@H](CCCNC(=N)N)NC(=O)[C@@H](Cc2c[nH]c3ccccc23)NC(=O)[C@H](C)NC(=O)[C@H](CCCNC(=N)N)NC(=O)C[C@@H]2CCCN2C(=O)Cc2ccc(cc2)CSCCCCNC(=O)C2CCN(CC2)C(=O)[C@@H](CCCCN)NC(=O)[C@H](CCCNC(=N)N)NC(=O)[C@@H](Cc2c[nH]c3ccccc23)NC1=O [ArBMim, [-Bmpa-bhPro-Arg-Ala-Trp-Arg-Lys-Inp-CH2CH2CH2CH2-S-]2] (cyclo([Inp][X1][β3hP]RA[dW]R[dK][Inp][X1][β3hP]RA[dW]R[dK]))	23.4 ± 2.1 µM
CC(C)C[C@H](NC(=O)[C@H](CCCNC(=N)N)NC(=O)[C@@H]1CSCc2ccccc2CSC[C@H](NC(=O)[C@H](Cc2ccccc2)NC(=O)[C@@H](N)CCCNC(=N)N)C(=O)N[C@@H](CCCNC(=N)N)C(=O)N[C@@H](Cc2ccc(O)cc2)C(=O)N[C@@H](Cc2c[nH]c3ccccc23)C(=O)N1)C(=O)N[C@@H](CCCNC(=N)N)C(=O)N1CCC[C@H]1C(N)=O [ArB15Fo] (H-RFCRYWCRLRP-NH2; linker 3-7 via oXylylene; N-terminus assumed)	49.6 µM
N=C(N)NCCC[C@H](NC(=O)[C@H](Cc1c(F)c(F)c(F)c(F)c1F)NC(=O)[C@H](CCCNC(=N)N)NC(=O)[C@@H](CCCNC(=N)N)NC(=O)CCCCCNC(=O)CCCc1ccc(N(CCCl)CCCl)cc1)C(=O)N[C@@H]1CSCc2ccccc2CSC[C@@H](C(=O)N[C@H](CCCNC(=N)N)C(=O)N[C@@H](CC2CCCCC2)C(=O)N[C@@H](CCCNC(=N)N)C(=O)N2Cc3ccccc3C2C(N)=O)NC(=O)[C@H](Cc2cccc3ccccc23)NC(=O)[C@H](Cc2ccc(O)cc2)NC1=O (stereo partly drawn) [ArB14Co-CLB, CLB-Ahx-Arg-Arg-PhF-Arg-Cys-Tyr-Na1-Cys-Arg-Cha-Arg-DISC] ({Chlorambucil-Ahx}-[dR]R[Phe(F5)]R[dC]Y[1Nal]C[dR][Cha]R[ξDisc]-NH2; linker 5-8 via oXylylene)	7.5 ± 1.1 µM
N=C(N)NCCC[C@@H](N)C(=O)N[C@@H](CCCNC(=N)N)C(=O)N[C@@H](Cc1c(F)c(F)c(F)c(F)c1F)C(=O)N[C@@H](CCCNC(=N)N)C(=O)N[C@@H]1CSCc2ccccc2CSC[C@@H](C(=O)N[C@H](CCCNC(=N)N)C(=O)N[C@@H](CC2CCCCC2)C(=O)N[C@@H](CCCNC(=N)N)C(=O)N2Cc3ccccc3C2C(N)=O)NC(=O)[C@H](Cc2cccc3ccccc23)NC(=O)[C@H](Cc2ccc(O)cc2)NC1=O (stereo partly drawn) [ArB14Co, Arg-Arg-PhF-Arg-Cys-Tyr-Na1-Cys-Arg-Cha-Arg-DISC] (H-[dR]R[Phe(F5)]R[dC]Y[1Nal]C[dR][Cha]R[ξDisc]-NH2; linker 5-8 via oXylylene)	11.2 ± 1.2 µM

Same assay, conditions: read-out: EC50 [μM] HCT-116; HCT116 colorectal cancer cells, PrestoBlue assay; NA = not active

Compound	EC50
CC(C)C[C@H](NC(=O)[C@H]1CSCc2cccc(c2)Cc2cccc(c2)CSC[C@H](NC(=O)[C@H](C)NC(=O)[C@H](Cc2ccccc2)NC(=O)[C@H](CO)NC(=O)[C@@H](N)[C@@H](C)O)C(=O)N[C@@H](Cc2ccc(O)cc2)C(=O)N[C@@H](Cc2c[nH]c3ccccc23)C(=O)NCC(=O)N1)C(=O)N[C@@H](CO)C(=O)N1CCC[C@H]1C(N)=O [ArB15Eb]	163 µM
